Measured values from patent publication US9044015B2, “Heterocyclic compounds as pesticides” (Bayer CropScience AG, priority 2010, dated 2015).
Like-named read-outs stand apart in the source and are kept apart here.

What was measured:
Myzus persicae = test: Myzus test (spray treatment); format: in vivo; settings: foliar, read-out: efficacy in % (aphids killed)
Experimental: Solvent 78 parts by weight of acetone • • 1.5 parts by weight of dimethylformamide
Emulsifier: 0.5 part by weight of alkylaryl polyglycol ether
To prepare an appropriate active ingredient preparation, 1 part by weight of active ingredient is mixed with the stated amounts of solvent and emulsifier, and the concentrate is diluted with emulsifier-containing water to the desired concentration.

physchem = test: physchem
Experimental: 1) Description of Method for Determination of the log P Values (Formic Aid Method)
Eluents for determination in the acidic range (pH 3.4):
Eluent A: acetonitrile+1 ml of formic acid/liter. Eluent B: water+0.9 ml of formic acid/liter.
The lambda max values were determined in the maxima of the chromatographic signals using the UV spectra from 200 nm to 400 nm.

[1] = application rate 500 g/ha, sprayed Chinese cabbage leaf discs, all stages of green peach aphid
[2] = reverse-phase C18 HPLC column, pH 3.4, logP (HCOOH), final compounds table, HPLC reverse-phase C18, acidic range pH 3.4, 55° C.
[3] = reverse-phase C18 HPLC column, pH 3.4, log P (HCOOH), preparation examples, HPLC-MS
[4] = reverse-phase C18 HPLC column, pH 3.4, logP (HCOOH), intermediates tables, HPLC reverse-phase C18, acidic range pH 3.4, 55° C.

SMILES	pest or weed control at 500 g/ha (Myzus persicae; [1]) [%]	chromatographic logP (physchem; pH 3.4, logP (HCOOH))	chromatographic logP (physchem; [2])	also measured
CS(=O)(=O)Nc1cccc(-c2cnn(-c3cccnc3)c2)n1 [Compound 1, N-{6-[1-(Pyridin-3-yl)-1H-pyrazol-4-yl]pyridin-2-yl}methanesulphonamide]	80	1.26		chromatographic logP (physchem; pH 3.4, log P (HCOOH)): 1.26
O=C(NS(=O)(=O)C(F)(F)F)c1cccc(-c2cnc(-c3cncc(F)c3)s2)n1 [Compound 2, 6-[2-(5-Fluoropyridin-3-yl)-1,3-thiazol-5-yl]-N-[(trifluoromethyl)sulphonyl]pyridine-2-carboxamide]	100	1.86		chromatographic logP (physchem; pH 3.4, log P (HCOOH)): 1.86
CS(=O)(=O)NC(=O)c1cccc(-c2nnc(-c3cncc(F)c3)s2)n1 [Compound 3, 6-[5-(5-Fluoropyridin-3-yl)-1,3,4-thiadiazol-2-yl]-N-(methylsulphonyl)pyridine-2-carboxamide]	100	1.79		chromatographic logP (physchem; pH 3.4, log P (HCOOH)): 1.79
O=C(NS(=O)(=O)C1CC1)c1cccc(-c2cnc(-c3cncc(F)c3)s2)n1 [Compound 6]	100	2.44		
CCS(=O)(=O)NC(=O)c1cccc(-c2cnn(-c3cncnc3)c2)n1 [Compound 7]	100	1.63		
CS(=O)(=O)NC(=O)c1cccc(-c2cnc(-c3cncnc3)s2)n1 [Compound 8]	100		1.48	
CS(=O)(=O)NC(=O)c1cccc(-c2cnc(-c3cncc(F)c3)s2)n1 [Compound 9]	100	2.05		
COCCS(=O)(=O)Nc1cccc(-c2cnn(-c3cccnc3)c2)n1 [Compound 10]	80	1.43		
O=C(NS(=O)(=O)C(F)F)c1cccc(-c2cnc(-c3cncc(F)c3)s2)n1 [Compound 11]	100		1.79	
CS(=O)(=O)NC(=O)c1cccc(-c2cnc(-c3cccnc3)s2)n1 [Compound 12]	100	1.56		
O=C(NS(=O)(=O)c1ccccc1)c1cccc(-c2cnc(-c3cncc(F)c3)s2)n1 [Compound 13]	100		2.94	
CS(=O)(=O)N(c1cccc(-c2cnn(-c3cncc(F)c3)c2)n1)S(C)(=O)=O [Compound 14]	90	2.15		
CN(C)S(=O)(=O)NC(=O)c1cccc(-c2cnn(-c3cncc(F)c3)c2)n1 [Compound 16]	100		2.42	
CS(=O)(=O)NC(=O)c1cccc(-c2cnc(-c3cncc(Cl)c3)s2)n1 [Compound 17]	100		2.4	
CCS(=O)(=O)NC(=O)c1cccc(-c2cnc(-c3cncc(F)c3)s2)n1 [Compound 18]	100		2.33	
CCS(=O)(=O)Nc1cccc(-c2cnn(-c3cccnc3)c2)n1 [Compound 19]	100	1.48		
CC(C)S(=O)(=O)NC(=O)c1cccc(-c2cnc(-c3cncc(F)c3)s2)n1 [Compound 20]	100		2.61	
O=C(NS(=O)(=O)Cc1ccccc1)c1cccc(-c2cnc(-c3cncc(F)c3)s2)n1 [Compound 21]	80	2.97		
CS(=O)(=O)NC(=O)c1cccc(-c2cnn(-c3cncnc3)c2)n1 [Compound 22]	100	1.38		
O=C(NS(=O)(=O)c1ccccc1)c1cccc(-c2cnn(-c3cncnc3)c2)n1 [Compound 23]	90		2.24	
CS(=O)(=O)NC(=O)c1cccc(-c2cnn(-c3cccnc3)c2)n1 [Compound 24]	100	1.48		

SMILES	pest or weed control at 500 g/ha (Myzus persicae; [1]) [%]	chromatographic logP (physchem; pH 3.4, logP (HCOOH))	chromatographic logP (physchem; [2])	also measured
CCS(=O)(=O)NC(=O)c1cccc(-c2cnn(-c3cccnc3)c2)n1 [Compound 25]	100	1.77		
CCS(=O)(=O)NC(=O)c1cccc(-c2cnn(-c3cncc(F)c3)c2)n1 [Compound 26]	100	2.21		
CN(C)S(=O)(=O)NC(=O)c1cccc(-c2cnn(-c3cccnc3)c2)n1 [Compound 27]	100		1.96	
O=C(NS(=O)(=O)C1CC1)c1cccc(-c2cnn(-c3cncnc3)c2)n1 [Compound 28]	80	1.76		
O=C(NS(=O)(=O)C1CC1)c1cccc(-c2cnn(-c3cncc(F)c3)c2)n1 [Compound 29]	100		2.35	
O=C(NS(=O)(=O)C1CC1)c1cccc(-c2cnn(-c3cccnc3)c2)n1 [Compound 30]	100	1.85		
O=C(NS(=O)(=O)c1ccccc1)c1cccc(-c2cnn(-c3cncc(F)c3)c2)n1 [Compound 31]	100	2.82		
O=C(NS(=O)(=O)c1ccccc1)c1cccc(-c2cnn(-c3cccnc3)c2)n1 [Compound 32]	90		2.26	
O=C(NS(=O)(=O)Cc1ccccc1)c1cccc(-c2cnn(-c3cncc(F)c3)c2)n1 [Compound 33]	100		2.89	
O=C(NS(=O)(=O)Cc1ccccc1)c1cccc(-c2cnn(-c3cncnc3)c2)n1 [Compound 34]	90		2.28	
O=C(NS(=O)(=O)Cc1ccccc1)c1cccc(-c2cnn(-c3cccnc3)c2)n1 [Compound 35]	100	2.44		
CS(=O)(=O)NC(=O)c1csc(-c2cnn(-c3cccnc3)c2)n1 [Compound 36, N-(Methylsulphonyl)-2-[1-(pyridin-3-yl)-1H-pyrazol-4-yl]-1,3-thiazole-4-carboxamide]	100	1.25		chromatographic logP (physchem; pH 3.4, log P (HCOOH)): 1.25
CS(=O)(=O)NC(=O)c1csc(-c2cnn(-c3cncc(F)c3)c2)n1 [Compound 37]	90	1.66		
CCN(CC)S(=O)(=O)NC(=O)c1cccc(-c2cnn(-c3cncnc3)c2)n1 [Compound 38]	90	2.36		
CCN(CC)S(=O)(=O)NC(=O)c1cccc(-c2cnn(-c3cncc(F)c3)c2)n1 [Compound 39]	100	2.98		
CCN(CC)S(=O)(=O)NC(=O)c1cccc(-c2cnn(-c3cccnc3)c2)n1 [Compound 40]	100	2.49		
N=C(N)c1cccc(-c2cnc(-c3cccnc3)s2)n1 [Compound 48]				pest or weed control at 500 g/ha (Myzus persicae; in Brassica rapa): 90%
CS(=O)(=O)NC(=O)c1nc(Br)cs1 [XVI-1, 4-Bromo-N-(methylsulphonyl)-1,3-thiazole-2-carboxamide]				chromatographic logP (physchem; [3]): 0.63; chromatographic logP (physchem; [4]): 0.63
NS(=O)(=O)c1cccc(-c2cnn(-c3cccnc3)c2)n1 [XVII-1, 6-[1-(pyridin-3-yl)-1H-pyrazol-4-yl]pyridine-2-sulphonamide]				chromatographic logP (physchem; [3]): 0.99; chromatographic logP (physchem; [4]): 0.99
NS(=O)(=O)c1cccc(-c2cnn(-c3cncc(F)c3)c2)n1 [XVII-2]				chromatographic logP (physchem; [4]): 1.44
NS(=O)(=O)c1cccc(-c2cnn(-c3cncnc3)c2)n1 [XVII-3]		0.89		
